Assay results from patent US9856216B2, “Compounds as TNIK, IKKε and TBK1 inhibitors and pharmaceutical composition comprising same” (GREEN CROSS CORPORATION, priority 2015, dated 2018).

molecular target: T1, TNIK (Homo sapiens, UniProt Q9UKE5); assay: ADP-Glo Kinase Assay, inhibition activity on TNIK; assay type: biochemical; conditions: not given
T1 construct: purchased Promega V4158
Experimental: The inhibition activities on TNIK, IKKε and TBK1 were measured by a luminometer, TNIK/IKKε/TBK1 Kinase Enzyme System (Promega, Ca# V4158; Invitrogen, PR8031B, Promega, Ca# V3991) and ADP-Glo Kinase Assay using ADP-Glo™ Kinase Analysis Kit (Promega, Ca# V9101) and a kinase reaction buffer [40 mM Tris(pH 7.5), 20 mM MgCl2, 0.1 mg/mL BSA] in accordance with the manufacturer's protocol.

T1 sequence (Q9UKE5 1-367 limits assumed): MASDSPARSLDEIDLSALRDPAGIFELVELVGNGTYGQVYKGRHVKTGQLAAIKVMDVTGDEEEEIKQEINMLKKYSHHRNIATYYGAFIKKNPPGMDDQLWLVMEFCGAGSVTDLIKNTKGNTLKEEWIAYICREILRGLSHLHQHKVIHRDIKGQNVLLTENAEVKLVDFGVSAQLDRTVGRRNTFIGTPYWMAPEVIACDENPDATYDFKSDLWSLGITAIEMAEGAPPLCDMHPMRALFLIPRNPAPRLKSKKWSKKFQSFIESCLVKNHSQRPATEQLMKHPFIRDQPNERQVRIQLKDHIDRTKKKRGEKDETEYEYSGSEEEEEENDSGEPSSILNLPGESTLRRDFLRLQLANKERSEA

Structure (SMILES) | TNIK (μM)
CN(C)c1cccc(C(=O)Nc2ccc(-c3ccccc3)c3c2C(=O)NC3)c1 [Example 95, 3-(Dimethylamino)-N-(3-oxo-7-phenylisoindolin-4-yl) benzamide] | Insoluble
COc1ccc(C(=O)Nc2ccc(-c3ccccc3)c3c2C(=O)NC3)cc1OC [Example 102, 3,4-Dimethoxy-N-(3-oxo-7-phenylisoindolin-4-yl)benzamide] | Insoluble
O=C(Nc1ccc(-c2ccccc2)c2c1C(=O)NC2)c1ccc(Cl)c(Cl)c1 [Example 104, 3,4-Dichloro-N-(3-oxo-7-phenylisoindolin-4-yl)benzamide] | Insoluble

same assay, conditions: read-out: TNIK

Structure (SMILES) | IC50
Cc1ccc(C(=O)Nc2ccc(-c3ccccc3)c3c2C(=O)NC3)cc1C [Example 93, 3,4-Dimethyl-N-(3-oxo-7-phenylisoindolin-4-yl)benzamide] | 1.1 µM
CN(C)c1ccccc1C(=O)Nc1ccc(-c2ccccc2)c2c1C(=O)NC2 [Example 94, 2-(Dimethylamino)-N-(3-oxo-7-phenylisoindolin-4-yl) benzamide] | > 20 µM
CSc1ccccc1C(=O)Nc1ccc(-c2ccccc2)c2c1C(=O)NC2 [Example 96, 2-(Methylthio)-N-(3-oxo-7-phenylisoindolin-4-yl)benzamide] | 7 µM
CSc1cccc(C(=O)Nc2ccc(-c3ccccc3)c3c2C(=O)NC3)c1 [Example 97, 3-(Methylthio)-N-(3-oxo-7-phenylisoindolin-4-yl)benzamide] | > 20 µM
CS(=O)(=O)c1ccccc1C(=O)Nc1ccc(-c2ccccc2)c2c1C(=O)NC2 [Example 98, 2-(Methylsulfonyl)-N-(3-oxo-7-phenylisoindolin-4-yl) benzamide] | 10.5 µM
CS(=O)(=O)c1cccc(C(=O)Nc2ccc(-c3ccccc3)c3c2C(=O)NC3)c1 [Example 99, 3-(Methylsulfonyl)-N-(3-oxo-7-phenylisoindolin-4-yl) benzamide] | 4.3 µM
CS(=O)(=O)c1ccc(C(=O)Nc2ccc(-c3ccccc3)c3c2C(=O)NC3)cc1 [Example 100, 4-(Methylsulfonyl)-N-(3-oxo-7-phenylisoindolin-4-yl) benzamide] | > 20 µM
COc1ccc(C(=O)Nc2ccc(-c3ccccc3)c3c2C(=O)NC3)c(OC)c1 [Example 101, 2,4-Dimethoxy-N-(3-oxo-7-phenylisoindolin-4-yl)benzamide] | > 20 µM
O=C(Nc1ccc(-c2ccccc2)c2c1C(=O)NC2)c1ccc(Cl)cc1Cl [Example 103, 2,4-Dichloro-N-(3-oxo-7-phenylisoindolin-4-yl)benzamide] | > 20 µM
Cc1ccc(C(=O)Nc2ccc(-c3ccccc3)c3c2C(=O)NC3)c(C)c1 [Example 105, 2,4-Dimethyl-N-(3-oxo-7-phenylisoindolin-4-yl)benzamide] | > 20 µM
CC(=O)Nc1ccccc1C(=O)Nc1ccc(-c2ccccc2)c2c1C(=O)NC2 [Example 106, 2-Acetamido-N-(3-oxo-7-phenylisoindolin-4-yl)benzamide] | > 20 µM
CC(=O)Nc1cccc(C(=O)Nc2ccc(-c3ccccc3)c3c2C(=O)NC3)c1 [Example 107, 3-Acetamido-N-(3-oxo-7-phenylisoindolin-4-yl)benzamide] | 0.48 µM
CNc1ccc(C(=O)Nc2ccc(-c3ccccc3)c3c2C(=O)NC3)cc1 [Example 108, 4-(Methylamino)-N-(3-oxo-7-phenylisoindolin-4-yl)benzamide] | 0.78 µM
Cc1ccsc1C(=O)Nc1ccc(-c2ccccc2)c2c1C(=O)NC2 [Example 109, 3-Methyl-N-(3-oxo-7-phenylisoindolin-4-yl)thiophene-2-carboxamide] | > 20 µM
Cc1csc(C(=O)Nc2ccc(-c3ccccc3)c3c2C(=O)NC3)c1 [Example 110, 4-Methyl-N-(3-oxo-7-phenylisoindolin-4-yl)thiophene-2-carboxamide] | > 20 µM
Cc1ccc(C(=O)Nc2ccc(-c3ccccc3)c3c2C(=O)NC3)s1 [Example 111, 5-Methyl-N-(3-oxo-7-phenylisoindolin-4-yl)thiophene-2-carboxamide] | 0.54 µM
